Where two headings read alike, the source gives them in different places.
Assays:
[1] = tested on: β-glucosidase; experiment: β-glucosidase inhibitory assay in 96-well plates (p-NPG, absorbance 405 nm); type: biochemical; conditions: concentration of 1 mM; end concentration of 100 µM in each well
Protocol: An already established method was employed to perform α- and β-glucosidase inhibitory assays in 96-well plates ([Kazmi et al., 2017]). In this assay, phosphate buffer (0.07 M pH 6.8) was used to prepare 2.5 U/mL of α-glucosidase, 2.0 U/mL of β-glucosidase, and substrate 4-nitrophenyl-β-D-glucopyranoside (p-NPG) (10 mM) solutions. In addition, 1 mM solution of each test compound was prepared in 10% DMSO to achieve an end concentration of 100 µM in each well. Initially, 10 µL of the respective enzyme was incubated with 10 µL of test compounds for 5 min at 37 °C. Subsequently, 10 µL of p-NPG was added in each well followed by an incubation period of 30 min at 37 °C before adding 80 µL of Na2CO3 (200 mM) as a stop solution to each well. The absorbance was measured at 405 nm, and the percentage inhibition for each of the test compounds was determined by the following equation.
Percentage inhibition = 100–[Slope of test compound/Slope of enzyme control] × 100.
Acarbose was used as a standard drug for evaluating the efficacy of test compounds against α- and β-glucosidase. The inhibitory concentration 50 (IC50) for each of the test compound was determined by GraphPad prism version 10.0.

[2] = target: α-glucosidase (Saccharomyces cerevisiae, UniProt P53341); experiment: biochemical; type: biochemical
Chain of α-glucosidase (P53341 whole entry): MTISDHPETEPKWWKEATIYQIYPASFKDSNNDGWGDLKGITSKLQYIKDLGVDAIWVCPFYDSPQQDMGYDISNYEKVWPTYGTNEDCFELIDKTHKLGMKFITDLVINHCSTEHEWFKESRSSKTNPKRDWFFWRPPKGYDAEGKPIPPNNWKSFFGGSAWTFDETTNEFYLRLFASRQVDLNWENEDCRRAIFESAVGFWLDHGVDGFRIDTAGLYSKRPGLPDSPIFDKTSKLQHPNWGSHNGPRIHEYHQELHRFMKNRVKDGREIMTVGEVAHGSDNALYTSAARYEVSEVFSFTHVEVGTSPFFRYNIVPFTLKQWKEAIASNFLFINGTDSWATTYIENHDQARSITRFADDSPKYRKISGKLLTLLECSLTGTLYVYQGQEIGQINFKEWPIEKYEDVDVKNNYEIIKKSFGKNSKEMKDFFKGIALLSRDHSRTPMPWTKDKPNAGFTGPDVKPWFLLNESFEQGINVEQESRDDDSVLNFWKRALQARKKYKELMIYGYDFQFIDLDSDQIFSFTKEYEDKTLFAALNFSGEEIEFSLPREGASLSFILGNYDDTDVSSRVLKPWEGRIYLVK

[3] = read-out: α-glucosidase inhibition IC50 ± SEM

| SMILES | β-glucosidase inhibition %age inhibition [1] [%] | melting point [°C] | IC50 [2] [µM] | reduction in activity on switching chlorine from para- to meta-position ([2]; relative to 5a) [%] | IC50 [2, 3] [µM] | potency relative to acarbose (times/fold more potent) [2] |
| --- | --- | --- | --- | --- | --- | --- |
| Cc1nn(C(=O)c2ccc(Br)cc2)c(C)c1/N=N/c1ccc(S(N)(=O)=O)cc1 [Compound 5i, (E)-4-((1-(4-Bromobenzoyl)-3,5-dimethyl-1H-pyrazol-4-yl)diazenyl)benzenesulfonamide] | 11.2 | 235 to 237 | 19.1 ± 1.07 |  |  |  |
| Cc1nn(C(=O)c2ccc(Cl)cc2)c(C)c1/N=N/c1ccc(S(N)(=O)=O)cc1 [Compound 5a, (E)-4-((1-(4-Chlorobenzoyl)-3,5-dimethyl-1H-pyrazol-4-yl)diazenyl)benzenesulfonamide] | 34.3 |  | 1.13 ± 0.06 |  |  |  |
| Cc1nn(C(=O)c2cccc(Cl)c2)c(C)c1/N=N/c1ccc(S(N)(=O)=O)cc1 [Compound 5b, (E)-4-((1-(3-Chlorobenzoyl)-3,5-dimethyl-1H-pyrazol-4-yl)diazenyl)benzenesulfonamide] | 32.1 |  | 2.22 ± 0.11 | 50 |  |  |
| C[C@H]1O[C@H](O[C@H]2[C@H](O)[C@@H](O)[C@@H](O[C@H]3[C@H](O)[C@@H](O)C(O)O[C@@H]3CO)O[C@@H]2CO)[C@H](O)[C@@H](O)[C@@H]1N[C@H]1C=C(CO)[C@@H](O)[C@H](O)[C@H]1O (stereo partly shown) [Acarbose, reference compound] | 63.7 |  |  |  |  |  |
| COc1ccc(C(=O)n2nc(C)c(/N=N/c3ccc(S(N)(=O)=O)cc3)c2C)cc1OC [Compound 5d, (E)-4-((1-(3,4-Dimethoxybenzoyl)-3,5-dimethyl-1H-pyrazol-4-yl)diazenyl)benzenesulfonamide] | 18.5 | 226 to 228 | 4.53 ± 0.12 |  |  |  |
| Cc1ccc(C(=O)n2nc(C)c(/N=N/c3ccc(S(N)(=O)=O)cc3)c2C)cc1 [Compound 5h, (E)-4-((3,5-Dimethyl-1-(4-methylbenzoyl)-1H-pyrazol-4-yl)diazenyl)benzenesulfonamide] | 14.6 | 218 to 220 |  |  | 9.22 ± 0.45 |  |
| COc1cccc(C(=O)n2nc(C)c(/N=N/c3ccc(S(N)(=O)=O)cc3)c2C)c1 [Compound 5j, (E)-4-((1-(3-Methoxybenzoyl)-3,5-dimethyl-1H-pyrazol-4-yl)diazenyl)benzenesulfonamide] | 7.55 |  | 17.9 ± 1.16 |  |  |  |
| Cc1n[nH]c(C)c1/N=N/c1ccc(S(N)(=O)=O)cc1 [Compound 5k, (E)-4-((3,5-Dimethyl-1H-pyrazol-4-yl)diazenyl)benzenesulfonamide] | 25.1 | 188 to 190 | 28.3 ± 1.45 |  |  |  |
| Cc1ccccc1C(=O)n1nc(C)c(/N=N/c2ccc(S(N)(=O)=O)cc2)c1C [Compound 5g, (E)-4-((3,5-Dimethyl-1-(2-methylbenzoyl)-1H-pyrazol-4-yl)diazenyl)benzenesulfonamide] | 21.0 |  | 3.47 ± 0.43 |  |  |  |
| COc1ccc(C(=O)n2nc(C)c(/N=N/c3ccc(S(N)(=O)=O)cc3)c2C)cc1 [Compound 5c, (E)-4-((1-(4-Methoxybenzoyl)-3,5-dimethyl-1H-pyrazol-4-yl)diazenyl)benzenesulfonamide] | 12.9 | 202 to 205 |  |  | 3.29 ± 0.09 |  |
| Cc1nn(C(=O)c2cccc([N+](=O)[O-])c2)c(C)c1/N=N/c1ccc(S(N)(=O)=O)cc1 [Compound 5f, (E)-4-((3,5-Dimethyl-1-(3-nitrobenzoyl)-1H-pyrazol-4-yl)diazenyl)benzenesulfonamide] | 27.4 |  |  |  | 2.77 ± 0.24 |  |
| Cc1nn(C(=O)c2ccc([N+](=O)[O-])cc2)c(C)c1/N=N/c1ccc(S(N)(=O)=O)cc1 [Compound 5e, (E)-4-((3,5-Dimethyl-1-(4-nitrobenzoyl)-1H-pyrazol-4-yl)diazenyl)benzenesulfonamide] | 11.7 | 231 to 233 |  |  | 4.11 ± 0.19 | eight |

— paper PMC11061460, “Acyl pyrazole sulfonamides as new antidiabetic agents: synthesis, glucosidase inhibition studies, and molecular docking analysis” (Frontiers in Chemistry, 2024)
